Results taken from US20240067639A1, “SMALL MOLECULES THAT TARGET THE RNA THAT CAUSES ALS” (EXPANSION THERAPEUTICS, INC., priority 2020, published 2024).
Like-named read-outs stand apart in the source and are kept apart here.

What was measured:
[1] = biological target: biotinylated r(G4C2)8 RNA and hnRNP H1-His6; assay: TR-FRET hnRNP H binding assay
Description: TR-FRET hnRNP H Binding Assay. The TR-FRET assays were performed as previously described (Disney et al., 2012) except the final concentrations of biotinylated r(G4C2)8 (SEQ ID NO: 2) RNA and hnRNP H1-His6 were 80 nM and 75 nM, respectively. The RNA was folded by heating to 95° C. for 5 min in 1× Folding Buffer followed by slowly cooling to room temperature. The buffer was adjusted to 1×TR-FRET Assay Buffer followed by addition of compound. The mixture was incubated for 15 min at room temperature and then hnRNP H1-His6 was added. After an additional 15 min incubation, streptavidin-XL665 (HTRF, Cisbio Bioassays) and anti-His6-Tb (HTRF, Cisbio Bioassays) were added to a final concentration of 40 nM and 0.44 ng/μL, respectively. After incubating for 1 h, TR-FRET was measured as previously described. The IC50s were either calculated by fitting the equation (1) in Graphpad Prism.

[2] = tested on: RAN translation of (G4C2)66-No ATG-GFP in HEK293T cells; assay: Cell-based assay of RAN translation inhibition (GFP/mCherry reporter); settings: Homo sapiens, HEK-293T; for IC25: 24 h, read-out: RANT IC25
[3] = Table D, HEK293T, 24 h treatment
[4] = Table E, inhibition of RAN translation, HEK293T, read-out: IC50

## Cc1c2ccncc2cc2c3cc(O)ccc3n(C)c12 [Compound 2, 5,6-dimethyl-6H-pyrido[4,3-b]carbazol-9-ol]
[1]; Table D
  Ki: > 200 µM

## Cc1c2ccncc2cc2c3cc(OCC(=O)O)ccc3n(C)c12 [Compound 4b, 2-((5,6-dimethyl-6H-pyrido[4,3-b]carbazol-9-yl)oxy)acetic acid]
[1]; Table D
  Ki: > 200 µM

## Cc1c2ccncc2cc2c3cc(OCCN4CCCC4)ccc3n(C)c12 [Compound 7, 5,6-dimethyl-9-(2-(pyrrolidin-1-yl)ethoxy)-6H-pyrido[4,3-b]carbazole]
[2]; [3]
  IC25: > 5 µM

## Cc1c2ccncc2cc2c3cc(OCC#N)ccc3n(C)c12 [Compound 13, 2-((5,6-dimethyl-6H-pyrido[4,3-b]carbazol-9-yl)oxy)acetonitrile]
[1]; Table D
  Ki: > 200 µM

## COc1ccc2c(c1)c1cc3cnccc3c(C)c1n2Cc1cnn(C)c1 [Compound 14, 9-methoxy-5-methyl-6-((1-methyl-1H-pyrazol-4-yl)methyl)-6H-pyrido[4,3-b]carbazol]
[1]; Table D
  Ki: > 200 µM

## COc1ccc2c(c1)c1cc3cnccc3c(C)c1n2Cc1ccncc1 [Compound 16, 9-methoxy-5-methyl-6-(pyridin-4-ylmethyl)-6H-pyrido[4,3-b]carbazole]
[1]; Table D
  Ki: > 200 µM

## COc1ccc2c(c1)c1cc3cnccc3c(C)c1n2Cc1ccccc1 [Compound 17, 6-benzyl-9-methoxy-5-methyl-6H-pyrido[4,3-b]carbazole]
[1]; Table D
  Ki: > 200 µM

## COc1ccc2c(c1)c1cc3cnccc3c(C)c1n2C(C)C [Compound 18, 6-isopropyl-9-methoxy-5-methyl-6H-pyrido[4,3-b]carbazole]
[1]; Table D
  Ki: > 200 µM

## COc1ccc2c(c1)c1cc3cnccc3c(C)c1n2C[C@@H](O)c1ccccc1 [Compound 19, (S)-2-(9-methoxy-5-methyl-6H-pyrido[4,3-b]carbazol-6-yl)-1-phenylethan-1-ol]
[1]; Table D
  Ki: > 200 µM

## COc1ccc2c(c1)c1cc3cnccc3c(C)c1n2CCN(C)C [Compound 20, 2-(9-methoxy-5-methyl-6H-pyrido[4,3-b]carbazol-6-yl)-N,N-dimethylethan-1-amine]
[1]; Table D
  Ki: > 200 µM

## COc1ccc2c(c1)c1cc3cnccc3c(C)c1n2CC1=NCCN1 [Compound 21, 6-((4,5-dihydro-1H-imidazol-2-yl)methyl)-9-methoxy-5-methyl-6H-pyrido[4,3-b]carbazole]
[1]; Table D
  Ki: > 200 µM

## COc1ccc2c(c1)c1cc3cnccc3c(C)c1n2CCCN1CCN(C)CC1 [Compound 22, 9-methoxy-5-methyl-6-(3-(4-methylpiperazin-1-yl)propyl)-6H-pyrido[4,3-b]carbazole]
[1]; Table D
  Ki: > 200 µM

## COc1ccc2c(c1)c1cc3c(C(=O)O)nccc3c(C)c1n2C [Compound 24, 9-methoxy-5,6-dimethyl-6H-pyrido[4,3-b]carbazole-1-carboxylic acid]
[1]; Table D
  Ki: > 200 µM

## CCOC(=O)c1nccc2c(C)c3[nH]c4ccc(OC)cc4c3cc12 [Compound 202, Ethyl-9-methoxy-5-methyl-6H-pyrido[4,3-b]carbazole-1-carboxylate]
[2]; [4]
  IC50: 12 µM

## CCOC(=O)C1=NCCc2c1cc1c([nH]c3ccc(OC)cc31)c2C [Compound 203]
[2]; [4]
  IC50: > 12.5 µM

## CCOC(=O)c1nccc2c(C)c3c(cc12)c1cc(OC)ccc1n3C [Compound 204, Ethyl-9-methoxy-5,6-dimethyl-6H-pyrido[4,3-b]carbazole-1-carboxylate]
[2]; [4]
  IC50: 12.5 µM

## COCCNC(=O)c1nccc2c(C)c3[nH]c4ccc(OC)cc4c3cc12 [Compound 205]
[2]; [4]
  IC50: 12.5 µM

## CCCNC(=O)c1nccc2c(C)c3[nH]c4ccc(OC)cc4c3cc12 [Compound 206]
[2]; [4]
  IC50: > 12.5 µM

## COc1ccc2[nH]c3c(C)c4ccnc(C(=O)NCCO)c4cc3c2c1 [Compound 207]
[2]; [4]
  IC50: 6 µM

## COc1ccc2[nH]c3c(C)c4ccnc(C(=O)NCCN)c4cc3c2c1 [Compound 208]
[2]; [4]
  IC50: 2.2 µM

## COc1ccc2[nH]c3c(C)c4ccnc(C(=O)NCCN(C)C)c4cc3c2c1 [Compound 209]
[2]; [4]
  IC50: 3.1 µM

## COc1ccc2[nH]c3c(C)c4ccnc(C(=O)NCCCN(C)C)c4cc3c2c1 [Compound 210]
[2]; [4]
  IC50: 10.3 µM

## COc1ccc2c(c1)c1cc3c(C(=O)NCCN(C)C)nccc3c(C)c1n2C [Compound 211]
[2]; [4]
  IC50: 3.1 µM

## COc1ccc2c(c1)c1cc3c(C(=O)N[C@H](C)CN(C)C)nccc3c(C)c1n2C [Compound 212, (R)—N-(1-(dimethylamino)propan-2-yl)-9-methoxy-5,6-dimethyl-6H-pyrido[4,3-b]carbazole-1-carboxamide]
[2]; [4]
  IC50: 3.1 µM

## Cn1c2ccc(OCCN3CCOCC3)cc2c2cc3ncccc3cc21 [Compound 225, 4-(2-((6-methyl-6H-pyrido[3,2-b]carbazol-9-yl)oxy)ethyl)morpholine]
[1]; Table F
  Ki: > 200 µM

## CN(C)CCOc1ccc2c(c1)c1cc3ncccc3cc1n2C [Compound 226, N,N-dimethyl-2-((6-methyl-6H-pyrido[3,2-b]carbazol-9-yl)oxy)ethanamine]
[1]; Table F
  Ki: 13 µM

## Cc1c2ccncc2cc2c3cc(OCCN4CCC(O)CC4)ccc3n(C)c12 [Compound 228, 1-(2-((5,6-dimethyl-6H-pyrido[4,3-b]carbazol-9-yl)oxy)ethyl)piperidin-4-ol]
[2]
  IC25: 1.3 µM

## Cc1c2ccncc2cc2c1oc1ccc(OCC3=NCCN3)cc12 [Compound 233, 9-((4,5-dihydro-1H-imidazol-2-yl)methoxy)-5-methylbenzofuro[2,3-g]isoquinoline]
[1]; Table F
  Ki: 7.5 µM

## Cc1c2ccnc(C(C)C)c2cc2c3cc(C(=O)NCCN(C)C)ccc3n(C)c12 [Compound 238, N-(2-(dimethylamino)ethyl)-1-isopropyl-5,6-dimethyl-6H-pyrido[4,3-b]carbazole-9-carboxamide]
[1]; Table F
  Ki: 20 µM

## Cc1c2ccncc2cc2c3cc(C(=O)OCCN(C)C)ccc3n(C)c12 [Compound 239, 2-(dimethylamino)ethyl 5,6-dimethyl-6H-pyrido[4,3-b]carbazole-9-carboxylate]
[1]; Table F
  Ki: 24 µM

## COc1cccc2c3cc4c(C(=O)N[C@H](C)CN(C)C)nccc4c(C)c3n(C)c12 [Compound 240, (R)—N-(1-(dimethylamino)propan-2-yl)-7-methoxy-5,6-dimethyl-6H-pyrido[4,3-b]carbazole-1-carboxamide]
[1]; Table F
  Ki: 20 µM

## Cc1c2ccnc(C(=O)N[C@H](C)CN(C)C)c2cc2c3c(OCCCN4CCN(C)CC4)cccc3n(C)c12 [Compound 241, (R)—N-(1-(dimethylamino)propan-2-yl)-5,6-dimethyl-10-(3-(4-methylpiperazin-1-yl)propoxy)-6H-pyrido[4,3-b]carbazole-1-carboxamide]
[1]; Table F
  Ki: 1.8 µM

## Cc1c2ccncc2cc2c3cc(OCc4ncc[nH]4)ccc3n(C)c12 [Compound 251, 9-((1H-imidazol-2-yl)methoxy)-5,6-dimethyl-6H-pyrido[4,3-b]carbazole]
[1]; Table F
  Ki: 19 µM

## Cc1c2ccncc2cc2c3cc(C(=O)NCCOC(C)(C)C)ccc3n(C)c12 [Compound 301, N-(2-(tert-butoxy)ethyl)-5,6-dimethyl-6H-pyrido[4,3-b]carbazole-9-carboxamide]
[2]; Table G, HEK293T, read-out: RANT IC50
  IC50: 13 µM

## Cc1c2ccncc2cc2c3cc(Oc4ccccn4)ccc3n(C)c12 [Compound 305, 5,6-dimethyl-9-(pyridin-2-yloxy)-6H-pyrido[4,3-b]carbazole]
[2]; read-out: RANT IC50
  IC50: 18 µM

## Cc1c2ccncc2cc2c3cc(OCCN4CCC(F)(F)CC4)ccc3n(C)c12 [Example 40, 9-(2-(4,4-difluoropiperidin-1-yl)ethoxy)-5,6-dimethyl-6H-pyrido[4,3-b]carbazole]
[1]; Table D
  Ki: > 200 µM

## Cc1c2ccncc2cc2c3cc(OCC4=NCCN4)ccc3n(CCCN3CCN(C)CC3)c12 [Example 43, 9-((4,5-dihydro-1H-imidazol-2-yl)methoxy)-5-methyl-6-(3-(4-methylpiperazin-1-yl)propyl)-6H-pyrido[4,3-b]carbazole]
[1]; Table D
  Ki: 27 µM

## Cc1c2ccncc2cc2c3cc(OCCCC(=N)N)ccc3n(C)c12 [Example 44a, 4-((5,6-dimethyl-6H-pyrido[4,3-b]carbazol-9-yl)oxy)butanimidamide]
[1]; Table D
  Ki: 10 µM

## COC(=O)CCCOc1ccc2c(c1)c1cc3cnccc3c(C)c1n2C [Example 44b, methyl 4-((5,6-dimethyl-6H-pyrido[4,3-b]carbazol-9-yl)oxy)butanoate]
[1]; Table D
  Ki: > 200 µM

## Cc1c2ccncc2cc2c3cc(OCC(=N)N)ccc3n(C)c12 [Example 45, 2-((5,6-dimethyl-6H-pyrido[4,3-b]carbazol-9-yl)oxy)acetimidamide]
[1]; Table D
  Ki: 21 µM

## Cn1c2ccc(OCCN3CCOCC3)cc2c2cc3cnccc3cc21 [Example 46, 4-[2-(6-methylpyrido[4,3-b]carbazol-9-yl)oxyethyl]morpholine]
[1]; Table D
  Ki: 4.6 µM

## Cc1c2ccncc2cc2c3cc(C(=O)N4CCNCC4)ccc3n(C)c12 [Example 72, (5,6-dimethyl-6H-pyrido[4,3-b]carbazol-9-yl)(piperazin-1-yl)methanone]
[2]; [3]
  IC25: > 5 µM

## Cc1c2ccncc2cc2c3cc(C(=O)NCCN)ccc3n(C)c12 [Example 74, N-(2-aminoethyl)-5,6-dimethyl-6H-pyrido[4,3-b]carbazole-9-carboxamide]
[2]; [3]
  IC25: > 5 µM

## COCCNC(=O)c1ccc2c(c1)c1cc3cnccc3c(C)c1n2C [Example 79, N-(2-methoxyethyl)-5,6-dimethyl-6H-pyrido[4,3-b]carbazole-9-carboxamide]
[2]; [3]
  IC25: 1.1 µM
